# Legend:
# Type in all cases: physicochemical
# [1] = trans-resveratrol suspended in mineral drink water (Arkina) after pasteurization at 80° C. for 1 minute; HPLC concentration and deposit observation; conditions: for Concentration after 18 hours / Concentration after 5 days / Concentration initial: HPLC
# Description: (§1) At 80° C. in water, resveratrol crystals need more than 15 minutes to dissolve completely to reach a concentration of 120 mg/liter. […] After the milling, the resveratrol CWS is dissolved within 1 minute at 80° C. 1 minute at 80° C. are standard conditions for the pasteurization step for the production of the beverages. This dissolution of the resveratrol during this pasteurization step ensures a good physical stability of the resveratrol in the beverages.
# Different concentration of Resvida™ (resveratrol cryst.) not milled were dispersed in mineral drink water (Arkina) and pasteurized at 80° C. for 1 minute. The following results with trans-resveratrol suspended in water (analysis done with HPLC) have been obtained:
# This powder was dissolved in mineral drink water (Arkina) and pasteurized at 80° C. for 1 minute. The following results with trans-resveratrol suspended in water (analysis done with HPLC) have been obtained: […]
# [2] = Dissolution time in water at 80° C.; conditions: at 80° C. in water, to reach a concentration of 120 mg/liter
# Description: as §1
# [3] = Deposits or visible recrystallization in beverages
# Source text: Preparation: • Dissolve potassium sorbate in a small quantity of water. • Add citric acid solution, dry vitamin E 15% CC and resveratrol CWS. • Stir until all ingredients have dissolved. • Add sugar, stir again and add water to 1 liter. • Fill into appropriate packages and pasteurize or pasteurize and fill aseptically.
# Preparation: • Dissolve potassium sorbate in a part of water under stirring. • Add resveratrol CWS under further stirring. • Add sugar syrup, ascorbic acid, citric acid solution, water-soluble flavour and beta-carotene solution, one after the other, under stirring (no high-speed mixer). • Dilute the bottling syrup to one liter of beverage. • Fill into appropriate packages and pasteurize or pasteurize and fill aseptically.
# [4] = theoretical concentration 81.5 mg/liter, mineral drink water, pasteurized 80° C. 1 minute
# [5] = theoretical concentration 98.5 mg/liter, mineral drink water, pasteurized 80° C. 1 minute
# [6] = theoretical concentration 119 mg/liter, mineral drink water, pasteurized 80° C. 1 minute
# [7] = theoretical concentration 160 mg/liter, mineral drink water, pasteurized 80° C. 1 minute
# [8] = theoretical concentration 205.5 mg/liter, mineral drink water, pasteurized 80° C. 1 minute
smiles,measurement,setting,value
"Oc1ccc(C=Cc2cc(O)cc(O)c2)cc1 [Resvida, 3,5,4′-trihydroxystilbene]",physical stability of resveratrol dissolved at 80° C.,"[1]; at room temperature, after dissolution in water at 80° C.",crystallize and make deposits within a couple of days
same,Observation,[1]; [4],Deposits +
same,Concentration after 18 hours,[1]; [4],62.0 µg/mL
same,Concentration after 5 days,[1]; [4],65.0 µg/mL
same,Concentration initial,[1]; [4],71.8 µg/mL
same,Concentration after 18 hours,[1]; [5],67.0 µg/mL
same,Concentration after 5 days,[1]; [5],47.1 µg/mL
same,Concentration initial,[1]; [5],87.4 µg/mL
same,Concentration after 18 hours,[1]; [6],67.7 µg/mL
same,Concentration after 5 days,[1]; [6],55.5 µg/mL
same,Concentration initial,[1]; [6],102.6 µg/mL
same,Concentration after 18 hours,[1]; [7],67.5 µg/mL
same,Concentration after 5 days,[1]; [7],46.4 µg/mL
same,Concentration initial,[1]; [7],123.7 µg/mL
same,Concentration after 18 hours,[1]; [8],61.3 µg/mL
same,Concentration after 5 days,[1]; [8],40.5 µg/mL
same,Concentration initial,[1]; [8],142.0 µg/mL
same,time to dissolve completely,[2],more than 15 minutes
same,deposit when used instead of the CWS form,[3]; near water beverage of Example 9,a deposit remained which could not be dissolved
same,deposit when used instead of the CWS form,[3]; soft drink of Example 10,a deposit remains which can not be dissolved

# From patent US8927046B2, “Resveratrol compositions” (DSM IP Assets B.V., priority 2009, dated 2015)
